Laboratory results from ChEMBL document CHEMBL1201862, “PubChem BioAssay data set” (2004).
Calls of active or inactive are those of the source.

Key:
[1] = target: T1, G-protein coupled receptor 35 (Homo sapiens, UniProt Q9HC97); test: SAR analysis of Agonists of the GPR35 Receptor using an Image-Based Assay - Set 4. [Related pubchem assays (depositor defined):AID2013, AID2026]; format: functional
Cannabinoid receptor 1 [2] = target: T2, Cannabinoid receptor 1 (Homo sapiens, UniProt P21554); test: SAR analysis of agonists of the Cannabinoid Receptor 1 using an Image-Based Assay - Set 4. [Related pubchem assays (depositor defined):AID2013, AID2026]; format: functional
T2 sequence (P21554 whole entry): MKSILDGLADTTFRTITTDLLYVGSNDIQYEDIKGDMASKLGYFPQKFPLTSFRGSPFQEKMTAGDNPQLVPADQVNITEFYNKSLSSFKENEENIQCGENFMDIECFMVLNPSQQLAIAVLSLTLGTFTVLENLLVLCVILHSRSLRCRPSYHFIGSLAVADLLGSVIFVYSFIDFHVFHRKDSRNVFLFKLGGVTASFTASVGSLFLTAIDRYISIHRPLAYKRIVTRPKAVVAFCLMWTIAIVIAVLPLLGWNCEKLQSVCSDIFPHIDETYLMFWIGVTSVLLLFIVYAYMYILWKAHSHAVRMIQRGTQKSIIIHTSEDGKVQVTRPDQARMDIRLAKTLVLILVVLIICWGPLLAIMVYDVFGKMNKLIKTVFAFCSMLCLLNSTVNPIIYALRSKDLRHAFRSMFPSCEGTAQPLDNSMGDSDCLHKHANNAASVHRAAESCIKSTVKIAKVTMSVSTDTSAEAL

[3] = target: T1, G-protein coupled receptor 35; test: SAR analysis of Antagonists of the GPR35 Receptor using an Image-Based Assay - Set 6. [Related pubchem assays (depositor defined):AID2013, AID2026]; format: functional
Cannabinoid receptor 1 [4] = target: T2, Cannabinoid receptor 1; test: SAR analysis of antagonists of the Cannabinoid Receptor 1 using an Image-Based Assay - Set 4. [Related pubchem assays (depositor defined):AID2013, AID2026]; format: functional
[5] = target: G-protein coupled receptor 55 (Homo sapiens, UniProt Q9Y2T6); test: SAR Analysis of Selective Antagonists of GPR55 using an Image-Based Assay - Set 4. [Related pubchem assays (depositor defined):AID2013, AID2026]; format: functional;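 further: antagonism of response to 5 µM lysophosphatidylinositol agonist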
G-protein coupled receptor 55, sequence (Q9Y2T6 whole entry): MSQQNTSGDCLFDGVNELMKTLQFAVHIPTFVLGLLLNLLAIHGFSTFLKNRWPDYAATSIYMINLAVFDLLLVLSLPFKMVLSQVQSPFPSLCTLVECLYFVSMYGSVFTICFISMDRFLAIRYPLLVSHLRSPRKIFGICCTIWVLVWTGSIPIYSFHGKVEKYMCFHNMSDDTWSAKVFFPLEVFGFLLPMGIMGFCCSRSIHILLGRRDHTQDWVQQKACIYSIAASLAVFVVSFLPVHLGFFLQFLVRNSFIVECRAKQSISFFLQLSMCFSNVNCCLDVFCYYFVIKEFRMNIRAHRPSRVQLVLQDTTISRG

Cannabinoid receptor 2 [6] = target: T3, Cannabinoid receptor 2 (Homo sapiens, UniProt P34972); test: SAR analysis of antagonists of the Cannabinoid Receptor 2 using an Image-Based Assay - Set 3. [Related pubchem assays (depositor defined):AID2013, AID2026]; format: functional
T3 sequence (P34972 whole entry): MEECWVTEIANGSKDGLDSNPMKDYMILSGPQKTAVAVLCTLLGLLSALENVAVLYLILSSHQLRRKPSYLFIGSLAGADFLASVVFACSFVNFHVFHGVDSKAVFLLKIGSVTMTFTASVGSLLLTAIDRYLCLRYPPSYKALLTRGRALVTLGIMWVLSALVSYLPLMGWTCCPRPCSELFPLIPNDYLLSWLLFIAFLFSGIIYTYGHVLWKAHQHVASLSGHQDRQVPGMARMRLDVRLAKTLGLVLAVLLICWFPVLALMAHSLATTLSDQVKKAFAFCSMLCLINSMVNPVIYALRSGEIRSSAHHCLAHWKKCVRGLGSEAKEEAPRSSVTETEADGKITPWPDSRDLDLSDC

Cannabinoid receptor 2 [7] = target: T3, Cannabinoid receptor 2; test: SAR analysis of agonists of the Cannabinoid Receptor 2 using an Image-Based Assay - Set 3. [Related pubchem assays (depositor defined):AID2013, AID2026]; format: functional
Hexokinase HKDC1 = target: T4, Hexokinase HKDC1 (Homo sapiens, UniProt Q2TB90); test: HKDC1 hexokinase activators, dose response, biochemical, W721R variant (AID 504730); format: functional
T4 sequence (Q2TB90 whole entry): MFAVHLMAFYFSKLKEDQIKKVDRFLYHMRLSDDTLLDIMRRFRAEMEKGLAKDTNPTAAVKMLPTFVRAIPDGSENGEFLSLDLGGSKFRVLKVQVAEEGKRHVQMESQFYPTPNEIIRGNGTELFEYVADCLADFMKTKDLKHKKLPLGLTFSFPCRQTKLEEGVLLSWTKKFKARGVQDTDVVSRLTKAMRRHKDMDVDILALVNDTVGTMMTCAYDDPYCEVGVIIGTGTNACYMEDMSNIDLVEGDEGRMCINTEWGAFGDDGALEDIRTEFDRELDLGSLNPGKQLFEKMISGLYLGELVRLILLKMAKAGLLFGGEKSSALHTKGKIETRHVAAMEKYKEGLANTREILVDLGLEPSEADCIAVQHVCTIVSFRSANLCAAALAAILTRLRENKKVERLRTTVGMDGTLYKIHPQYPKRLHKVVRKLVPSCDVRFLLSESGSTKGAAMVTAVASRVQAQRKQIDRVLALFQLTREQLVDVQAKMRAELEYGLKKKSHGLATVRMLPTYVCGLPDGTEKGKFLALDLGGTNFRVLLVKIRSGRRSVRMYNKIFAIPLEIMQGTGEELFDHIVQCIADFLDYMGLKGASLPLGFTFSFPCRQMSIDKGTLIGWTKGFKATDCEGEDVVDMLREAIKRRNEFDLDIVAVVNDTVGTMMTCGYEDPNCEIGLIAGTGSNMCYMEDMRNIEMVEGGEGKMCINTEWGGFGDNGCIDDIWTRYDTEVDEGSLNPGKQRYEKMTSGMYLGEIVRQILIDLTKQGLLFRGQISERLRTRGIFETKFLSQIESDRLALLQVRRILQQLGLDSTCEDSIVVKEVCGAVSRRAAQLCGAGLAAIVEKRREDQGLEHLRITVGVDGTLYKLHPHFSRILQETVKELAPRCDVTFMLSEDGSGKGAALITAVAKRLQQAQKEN

Hexokinase-1 = target: T5, Hexokinase-1 (Homo sapiens, UniProt P19367); test: hexokinase 1 activators, dose response, selectivity assay for HKDC1 activator project, biochemical (AID 504762); format: functional
T5 sequence (P19367 whole entry): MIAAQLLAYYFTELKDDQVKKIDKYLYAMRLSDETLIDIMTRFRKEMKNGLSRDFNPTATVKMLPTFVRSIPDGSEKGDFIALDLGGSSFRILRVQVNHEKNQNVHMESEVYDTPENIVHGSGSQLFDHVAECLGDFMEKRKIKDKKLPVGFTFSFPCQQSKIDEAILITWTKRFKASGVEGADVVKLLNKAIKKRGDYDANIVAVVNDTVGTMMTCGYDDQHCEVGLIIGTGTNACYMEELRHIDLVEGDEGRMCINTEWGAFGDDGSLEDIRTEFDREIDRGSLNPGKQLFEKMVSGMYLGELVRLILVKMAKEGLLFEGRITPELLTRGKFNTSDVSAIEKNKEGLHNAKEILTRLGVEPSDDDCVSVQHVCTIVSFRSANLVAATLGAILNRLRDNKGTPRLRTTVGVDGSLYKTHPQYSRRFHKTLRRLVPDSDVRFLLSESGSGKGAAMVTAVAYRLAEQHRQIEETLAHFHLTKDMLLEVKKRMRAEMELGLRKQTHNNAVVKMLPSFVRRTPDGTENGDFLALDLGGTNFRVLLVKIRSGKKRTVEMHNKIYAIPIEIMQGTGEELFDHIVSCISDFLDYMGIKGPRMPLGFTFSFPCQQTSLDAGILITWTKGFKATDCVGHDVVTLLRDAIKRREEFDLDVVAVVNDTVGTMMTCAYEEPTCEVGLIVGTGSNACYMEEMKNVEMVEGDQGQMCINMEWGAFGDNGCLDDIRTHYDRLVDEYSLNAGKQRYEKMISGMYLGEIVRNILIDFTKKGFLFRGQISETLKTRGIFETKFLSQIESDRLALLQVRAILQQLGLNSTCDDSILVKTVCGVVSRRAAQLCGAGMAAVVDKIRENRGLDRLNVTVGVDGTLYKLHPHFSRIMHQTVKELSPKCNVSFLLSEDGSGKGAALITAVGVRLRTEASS

[8] = target: T6, Voltage-gated N-type calcium channel alpha-1B subunit/Amyloid beta A4 precursor protein-binding family A member 1 (Homo sapiens, UniProt Q00975+Q02410); format: protein assay
T6 sequence (Q00975 whole entry): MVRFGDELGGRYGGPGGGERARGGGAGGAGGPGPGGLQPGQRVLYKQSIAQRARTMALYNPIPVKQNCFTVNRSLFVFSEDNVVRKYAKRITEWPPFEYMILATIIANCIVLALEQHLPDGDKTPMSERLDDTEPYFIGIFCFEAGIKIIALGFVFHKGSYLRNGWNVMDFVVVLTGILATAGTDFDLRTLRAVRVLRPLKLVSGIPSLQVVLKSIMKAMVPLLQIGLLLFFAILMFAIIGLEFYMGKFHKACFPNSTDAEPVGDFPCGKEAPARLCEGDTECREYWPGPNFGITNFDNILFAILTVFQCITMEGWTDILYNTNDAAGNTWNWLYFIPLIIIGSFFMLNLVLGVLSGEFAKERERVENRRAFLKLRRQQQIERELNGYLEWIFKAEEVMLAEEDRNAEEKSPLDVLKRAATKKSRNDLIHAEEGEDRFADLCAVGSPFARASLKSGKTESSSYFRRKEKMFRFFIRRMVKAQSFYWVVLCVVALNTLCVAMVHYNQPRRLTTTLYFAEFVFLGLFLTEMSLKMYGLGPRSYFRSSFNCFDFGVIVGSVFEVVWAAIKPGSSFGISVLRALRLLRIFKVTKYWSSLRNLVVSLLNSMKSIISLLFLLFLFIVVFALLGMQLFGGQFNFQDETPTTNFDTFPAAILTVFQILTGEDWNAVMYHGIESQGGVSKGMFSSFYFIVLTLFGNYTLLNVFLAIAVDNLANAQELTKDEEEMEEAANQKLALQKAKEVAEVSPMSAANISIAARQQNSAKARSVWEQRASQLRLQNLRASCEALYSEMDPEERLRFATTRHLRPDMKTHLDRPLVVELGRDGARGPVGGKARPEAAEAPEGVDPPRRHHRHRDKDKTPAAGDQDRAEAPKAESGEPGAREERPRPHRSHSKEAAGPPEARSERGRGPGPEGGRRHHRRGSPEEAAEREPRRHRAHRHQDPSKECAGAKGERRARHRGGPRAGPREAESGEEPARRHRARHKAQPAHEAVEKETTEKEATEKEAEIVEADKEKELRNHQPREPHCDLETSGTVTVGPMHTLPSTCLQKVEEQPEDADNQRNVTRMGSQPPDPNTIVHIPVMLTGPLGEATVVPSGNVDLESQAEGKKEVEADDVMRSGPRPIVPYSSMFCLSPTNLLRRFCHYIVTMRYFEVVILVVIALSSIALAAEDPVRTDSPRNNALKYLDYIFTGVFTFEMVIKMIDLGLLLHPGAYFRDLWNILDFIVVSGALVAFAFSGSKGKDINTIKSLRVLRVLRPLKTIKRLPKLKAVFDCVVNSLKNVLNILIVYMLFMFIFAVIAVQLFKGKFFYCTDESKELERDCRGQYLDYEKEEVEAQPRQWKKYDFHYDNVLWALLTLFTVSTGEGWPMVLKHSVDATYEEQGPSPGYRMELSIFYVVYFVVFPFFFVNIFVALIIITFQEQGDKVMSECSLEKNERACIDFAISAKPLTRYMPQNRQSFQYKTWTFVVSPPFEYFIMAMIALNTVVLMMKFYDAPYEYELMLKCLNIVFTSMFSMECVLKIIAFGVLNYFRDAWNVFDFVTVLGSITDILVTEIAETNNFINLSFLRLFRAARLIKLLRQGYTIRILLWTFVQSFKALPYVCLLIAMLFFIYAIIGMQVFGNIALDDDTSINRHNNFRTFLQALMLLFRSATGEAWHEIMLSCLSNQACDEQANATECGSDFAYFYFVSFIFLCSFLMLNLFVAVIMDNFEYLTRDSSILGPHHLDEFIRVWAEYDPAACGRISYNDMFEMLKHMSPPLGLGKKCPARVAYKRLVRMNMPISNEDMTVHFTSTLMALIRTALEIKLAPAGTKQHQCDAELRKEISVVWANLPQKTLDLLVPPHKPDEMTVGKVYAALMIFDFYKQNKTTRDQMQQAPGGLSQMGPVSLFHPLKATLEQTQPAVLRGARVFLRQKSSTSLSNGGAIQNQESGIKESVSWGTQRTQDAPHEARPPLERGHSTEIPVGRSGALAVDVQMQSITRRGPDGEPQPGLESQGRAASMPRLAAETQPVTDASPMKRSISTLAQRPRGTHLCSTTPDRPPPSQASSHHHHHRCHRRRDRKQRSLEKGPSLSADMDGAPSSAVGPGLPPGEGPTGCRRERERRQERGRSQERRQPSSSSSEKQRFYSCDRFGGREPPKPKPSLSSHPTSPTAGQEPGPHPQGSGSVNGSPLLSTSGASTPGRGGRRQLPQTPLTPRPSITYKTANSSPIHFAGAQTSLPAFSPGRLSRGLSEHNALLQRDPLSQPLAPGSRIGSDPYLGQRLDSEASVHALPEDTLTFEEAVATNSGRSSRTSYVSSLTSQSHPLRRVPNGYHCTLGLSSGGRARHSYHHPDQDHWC
T6 sequence (Q02410 whole entry): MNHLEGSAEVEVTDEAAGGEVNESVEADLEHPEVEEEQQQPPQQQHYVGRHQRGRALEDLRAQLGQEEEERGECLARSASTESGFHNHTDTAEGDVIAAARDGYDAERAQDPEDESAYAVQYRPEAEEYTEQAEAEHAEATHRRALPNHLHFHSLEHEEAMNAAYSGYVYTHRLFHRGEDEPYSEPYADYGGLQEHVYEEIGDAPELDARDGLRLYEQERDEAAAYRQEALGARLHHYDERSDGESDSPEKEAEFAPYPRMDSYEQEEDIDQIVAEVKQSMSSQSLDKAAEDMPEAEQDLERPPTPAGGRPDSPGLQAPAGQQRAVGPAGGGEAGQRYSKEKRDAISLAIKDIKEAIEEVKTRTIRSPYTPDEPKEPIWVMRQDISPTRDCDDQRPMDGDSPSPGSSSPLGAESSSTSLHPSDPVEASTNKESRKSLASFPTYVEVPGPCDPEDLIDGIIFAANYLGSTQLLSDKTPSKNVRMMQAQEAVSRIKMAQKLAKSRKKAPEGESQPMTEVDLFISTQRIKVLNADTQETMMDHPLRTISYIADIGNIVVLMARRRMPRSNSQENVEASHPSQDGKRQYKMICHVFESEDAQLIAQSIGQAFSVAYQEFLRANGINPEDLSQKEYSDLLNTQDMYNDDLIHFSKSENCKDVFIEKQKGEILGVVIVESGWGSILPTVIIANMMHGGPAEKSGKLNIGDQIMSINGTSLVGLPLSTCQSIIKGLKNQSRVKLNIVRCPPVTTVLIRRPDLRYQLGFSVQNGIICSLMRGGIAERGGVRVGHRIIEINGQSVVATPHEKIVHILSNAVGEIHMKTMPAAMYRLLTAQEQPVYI

[9] = target: E3 ubiquitin-protein ligase XIAP (Homo sapiens, UniProt P98170); test: Counter Screen using XIAP-Bir3 for Chemical Antagonists of Bir1/2 domains of IAP-family anti-apoptotic proteins. [Related pubchem assays (depositor defined):AID1018, AID1449, AID1514, AID1638, AID1749, AID1750, AID488957, AID488963]
[10] = target: T6, Voltage-gated N-type calcium channel alpha-1B subunit/Amyloid beta A4 precursor protein-binding family A member 1; format: protein assay; remark: listed apart in the source

T1 sequence (Q9HC97 whole entry): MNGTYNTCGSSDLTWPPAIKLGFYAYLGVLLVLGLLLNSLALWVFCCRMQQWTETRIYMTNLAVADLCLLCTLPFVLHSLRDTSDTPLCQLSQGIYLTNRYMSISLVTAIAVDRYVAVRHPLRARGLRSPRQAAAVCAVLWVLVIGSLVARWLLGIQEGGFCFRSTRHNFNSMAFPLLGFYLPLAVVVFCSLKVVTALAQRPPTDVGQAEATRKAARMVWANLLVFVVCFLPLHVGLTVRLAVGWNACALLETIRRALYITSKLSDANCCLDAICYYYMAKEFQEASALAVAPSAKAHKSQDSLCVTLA

Structure (SMILES) | EC50 [1] | EC50 (Cannabinoid receptor 1 [2]) | IC50 [3] | IC50 (Cannabinoid receptor 1 [4]) | IC50 [5] | IC50 (Cannabinoid receptor 2 [6]) | EC50 (Cannabinoid receptor 2 [7]) | EC50 (Hexokinase HKDC1) | EC50 (Hexokinase-1) | IC50 [8] | IC50 [9] | IC50 [10]
Cc1noc(NS(=O)(=O)c2ccc(NC(=O)c3cc(-c4ccccc4Cl)nc4ccccc34)cc2)c1C | > 32 µM (inactive) | > 32 µM (inactive) | > 32 µM (inactive) | 18.8 µM (inactive) | 4.63 µM (active) | > 32 µM (inactive) | > 32 µM (inactive) | – | – | – | – | –
Cc1ccc2oc(=O)c3cnn(CC(=O)N4CCCCCC4)c3c2c1 | – | – | – | – | – | – | – | 34.1 µM (inactive) | 21.7 µM (inactive) | – | – | –
O=C(Nc1ccc(S(=O)(=O)N2CCOCC2)cc1)c1ccc(O)nc1 | – | – | – | – | – | – | – | – | – | 7.16 µM (active) | > 20 µM (inactive) | > 50 µM (inactive)
Cc1nc(N2CCN(C(=O)COc3ccccc3C)CC2)c2c3c(sc2n1)CCCC3 | > 32 µM (inactive) | > 32 µM (inactive) | > 32 µM (inactive) | 2.22 µM (active) | 13.1 µM (inactive) | > 13.1 µM (inactive) | > 32 µM (inactive) | – | – | – | – | –
